Measured values: US6867226B2, “Serotonin 5-HT3 receptor partial activator” (Meiji Seika Kaisha, Ltd., priority 1996, dated 2005)

What was measured:
serotonin 5-HT3 receptor [1] = biological target: T1, serotonin 5-HT3 receptor (Cavia porcellus, UniProt O70212); experiment: Serotonin 5-HT3 receptor antagonism, inhibition of 5-HT-induced contraction of guinea pig ileum longitudinal muscle; format: cell-based; details: inhibition ratio of contraction by 10 μM serotonin 5-HT after treatment with test compound 10 μM; Hartley guinea pig ileum
T1 construct: Longitudinal muscle samples of about 20 mm were prepared from the ileum of Hartley male guinea pigs; from tissue; host or cells: guinea pig (Hartley, male) ileum longitudinal muscle
T1 sequence (O70212 20-490): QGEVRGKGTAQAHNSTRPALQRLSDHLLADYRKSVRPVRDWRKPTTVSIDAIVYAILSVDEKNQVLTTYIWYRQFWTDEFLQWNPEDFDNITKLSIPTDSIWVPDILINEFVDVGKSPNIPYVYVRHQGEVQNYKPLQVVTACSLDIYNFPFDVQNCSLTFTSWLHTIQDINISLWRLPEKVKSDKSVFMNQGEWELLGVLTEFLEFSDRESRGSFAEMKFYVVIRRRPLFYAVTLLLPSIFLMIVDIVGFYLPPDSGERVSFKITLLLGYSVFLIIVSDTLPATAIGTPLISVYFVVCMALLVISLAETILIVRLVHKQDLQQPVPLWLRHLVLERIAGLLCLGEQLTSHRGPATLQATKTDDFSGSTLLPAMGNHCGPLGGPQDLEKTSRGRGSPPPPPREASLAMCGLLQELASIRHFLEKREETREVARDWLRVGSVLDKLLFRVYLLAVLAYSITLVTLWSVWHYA
Description: (§1) Of the novel and known benzoxazole compounds according to the present invention, typical compounds and the compounds disclosed in JP-A-6-345744, namely 5-methoxy-2-(4-methyl-1-piperazinyl)benzoxazole (A) and 2-(4-methyl-1-piperazinyl)naphtho[2,3-d]oxazole (B), were measured for their serotonin 5-HT3 receptor antagonism and serotonin 5-HT3 receptor activating action by the following method, with the results shown in Table 1. Test compounds of the present invention are shown by the Inventive Example numbers.
(§2) Longitudinal muscle samples of about 20 mm were prepared from the ileum of Hartley male guinea pigs (500 to 800 g). Each of the thus prepared samples was hung down in a Magnus tube with a resting tension of about 0.5 g to measure the isometric contraction reaction. Serotonin 5-HT was applied with a concentration of from 0.1 to 30 μM to the sample which has been subjected twice in advance to 1 hour of treatment with 0.3 μM serotonin 5-HT to effect desensitization of serotonin 5-HT4 receptor.
The i.a. value was expressed as the ratio of the maximum reaction of each compound when the maximum contraction reaction obtained by 10 μM of serotonin 5-HT was defined as 1. The pD2 value was. expressed as the negative logarithmic value of concentration (molar concentration) by which 50% of the maximum contraction reaction of each test compound can be obtained. […]

serotonin 5-HT3 receptor [2] = biological target: T1, serotonin 5-HT3 receptor; experiment: 5-HT3 receptor activating action test, isometric contraction of guinea pig ileum longitudinal muscle; format: cell-based; details: for EC50: negative logarithm of molar concentration giving 50% of the compound's maximum contraction, read-out: Activation Action pD2 (converted); for EC50 / Activation Action i.a.: guinea pig ileum; for Activation Action i.a.: ratio of maximum reaction of compound to maximum contraction by 10 μM serotonin 5-HT defined as 1, 5-HT4 receptor desensitized; for serotonin 5-HT3 receptor activating action (in words): guinea pig ileum contraction, summary of Table 1
Description: 5-HT3 Receptor Activating Action Test
as §1, §2
The i.a. value was expressed as the ratio of the maximum reaction of each compound when the maximum contraction reaction obtained by 10 μM of serotonin 5-HT was defined as 1. The pD2 value was. expressed as the negative logarithmic value of concentration (molar concentration) by which 50% of the maximum contraction reaction of each test compound can be obtained. Also, antagonism of each test compound against the serotonin 5-HT3 receptor was calculated as the inhibition ratio of the contraction obtained by applying 10 μM of serotonin 5-HT (manufactured by Sigma) to a sample which has been treated with […] of each test sample to the contraction obtained by applying 10 μM of serotonin 5-HT to the sample before treatment.

mice = experiment: Toxicity test, oral administration to mice; format: in vivo; details: dose of 300 mg/kg, dissolved in water, five-week-old male mice (5 animals)

Compound | inhibition at 10 µM (serotonin 5-HT3 receptor [1]) | EC50 (serotonin 5-HT3 receptor [2]) | Activation Action i.a. (serotonin 5-HT3 receptor [2]) | serotonin 5-HT3 receptor activating action (in words) (serotonin 5-HT3 receptor [2]) | mortality (mice)
c1ccc2oc(N3CCNCC3)nc2c1 [Example 14, 2-(1-Piperazinyl)benzoxazole] | 75% |  |  |  | 
C=CC[N+]1(C)CCN(c2nc3cc(Cl)c(N)cc3o2)CC1.[Br-] [Example 7, 1-Allyl-1-methyl-4-(6-amino-5-chlorobenzoxazol-2-yl)piperazinium bromide] | 67% | 316 nM | 0.94 |  | 
CN1CCCN(c2nc3c(ccc4ccccc43)o2)CC1 [Example 40, 2-(4-Methyl-1-homopiperazinyl)naphtho[1,2-d]oxazole] | 89% | 79.4 nM | 0.21 |  | 
Nc1cc2oc(N3CCNCC3)nc2cc1Cl [Example 10, 6-Amino-5-chloro-2-(1-piperazinyl)benzoxazole] | 88% | 676 nM | 0.69 |  | 
Cc1cc(C)c2oc(N3CCCN(C)CC3)nc2c1 [Example 36, 5,7-Dimethyl-2-(4-methyl-1-homopiperazinyl)benzoxazole] | 96% | 63.1 nM | 0.28 |  | 
C=CC[N+]1(C)CCN(c2nc3cc(C)ccc3o2)CC1.[Br-] [Example 25, 1-Allyl-1-methyl-4-(5-methylbenzoxazol-2-yl)piperazinium bromide] | 86% | 708 nM | 0.79 |  | 
CN1CCN(c2nc3cc4ccccc4cc3o2)CC1 [B, 2-(4-methyl-1-piperazinyl)naphtho[2,3-d]oxazole, reference compound] | 85% | 3980 nM | 0.45 | weak in comparison with the compounds of the present invention | 
Cc1cc(Cl)cc2nc(N3CCN(C)CC3)oc12 [Example 31, 5-Chloro-7-methyl-2-(4-methyl-1-piperazinyl)benzoxazole] | 85% | 200 nM | 0.24 |  | 
CN1CCN(c2nc3cc(Cl)ccc3o2)CC1 [Example 1, 5-Chloro-2-(4-methyl-1-piperazinyl)benzoxazole] | 92% | 398 nM | 0.55 |  | 
COc1ccc2oc(N3CCN(C)CC3)nc2c1 [A, 5-methoxy-2-(4-methyl-1-piperazinyl)benzoxazole, reference compound] | 34% |  |  | does not have serotonin 5-HT3 receptor activating action | 
Cc1ccc2oc(C3CCNCC3)nc2c1 [Example 16, 2-(4-Piperidyl)-5-methylbenzoxazole] | 82% | 617 nM | 0.24 |  | 
C=CC[N+]1(C)CCN(c2nc3cccc(C)c3o2)CC1.[Br-] [Example 28, 1-Allyl-1-methyl-4-(7-methylbenzoxazol-2-yl)piperazinium bromide] |  |  |  |  | No mortal case
CN1CCN(c2nc3cc(Cl)c(N)cc3o2)CC1 [Example 5, 6-Amino-5-chloro-2-(4-methyl-1-piperazinyl)benzoxazole] | 95% | 676 nM | 0.59 |  | 
Cc1cc(Cl)cc2nc(N3CCCN(C)CC3)oc12 [Example 37, 5-Chloro-7-methyl-2-(4-methyl-1-homopiperazinyl)benzoxazole] | 98% | 20 nM | 0.15 |  | 
C=CC[N+]1(C)CCN(c2nc3cc(Cl)ccc3o2)CC1 [Example 2] | 90% | 224 nM | 0.57 |  | 
CN1CCN(c2nc3c(ccc4ccccc43)o2)CC1 [Example 21, 2-(4-Methyl-1-piperazinyl)naphtho[1,2-d]oxazole] | 85% | 501 nM | 0.26 |  | 
Cc1cc(C)c2oc(N3CCNCC3)nc2c1 [Example 13, 5,7-Dimethyl-2-(1-piperazinyl)benzoxazole] | 100% | 100 nM | 0.18 |  | No mortal case
